Source: patent US10336762B2 (priority 2017, dated 2019)

How the values were obtained:
[1] = tested on: TNFα; assay: cells; assay type: cell-based, human; details: Homo sapiens, Monocyte, LPS-stimulated human monocytes, TNFα content; read-out: EC50 TNF
Experimental: IRAK4 Monocyte TNFα Cell Based Assay Procedure:
The cell suspension was then plated at a density of 5,000 cells/well onto black 384 well Greiner clear bottom plates. Plates were pre-spotted with test compounds and serially diluted in DMSO where 200 nL/well were delivered using the Echo 550 acoustic liquid dispenser (Labcyte®) for a final DMSO concentration of 0.5%. Plated cells were treated with compound for 1 hour at 37° C. Cells were then stimulated with 50 pg/ml of LPS (Sigma) excluding outside columns of plate used for unstimulated cell control wells. Cells were incubated for an additional 4 hours at 37° C. Cells were then spun out of the media and 5 μl of sample were taken and analyzed for total TNFα content using the TR-FRET Human TNFα detection system (CisBio). This system utilizes two labeled antibodies (cryptate and XL665) that bind to two different epitopes of the TNFα molecule and produce FRET signal proportional to the concentration of TNFα in the sample. Detection antibodies are mixed 50:50 and 5 μL were dispensed into each well. Plates were covered with clear seals and incubated at room temp overnight. […] Percent of control was calculated as follows: % Control=100×(RatioSample−Ratio0% stimulation)/(Ratio100% Stimulation−Ratio0% Stimulation) where unstimulated cells (0% stimulation) were the negative control and stimulated cells (100% stimulation) were used as the positive control.

[2] = target: IRAK4 enzyme (Homo sapiens (Human), UniProt Q9NWZ3); assay: biochemical; assay type: biochemical; details: IRAK4 enzyme, TR-FRET (HTRF), 500 μM ATP
Chain of IRAK4 enzyme (Q9NWZ3 whole entry): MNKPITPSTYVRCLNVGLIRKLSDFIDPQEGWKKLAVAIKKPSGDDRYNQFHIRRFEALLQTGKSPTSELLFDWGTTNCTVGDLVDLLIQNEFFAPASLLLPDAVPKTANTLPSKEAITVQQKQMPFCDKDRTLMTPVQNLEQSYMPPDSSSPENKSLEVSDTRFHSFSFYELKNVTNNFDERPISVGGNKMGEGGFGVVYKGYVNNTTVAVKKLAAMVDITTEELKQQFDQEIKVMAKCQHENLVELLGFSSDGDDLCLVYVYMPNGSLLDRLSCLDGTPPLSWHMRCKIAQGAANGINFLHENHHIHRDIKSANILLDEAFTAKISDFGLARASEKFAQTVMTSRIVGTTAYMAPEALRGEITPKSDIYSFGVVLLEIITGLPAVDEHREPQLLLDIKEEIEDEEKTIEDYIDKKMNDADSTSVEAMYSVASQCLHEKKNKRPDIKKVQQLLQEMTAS

Structure (SMILES) | EC50 [1] [nM] | IC50 [2] [nM]
Cc1nnc(NC[C@H]2C[C@H](Nc3cc(-c4ccc5cc(C#N)cnn45)ncc3C(=O)NC[C@@H](F)C(C)(C)O)C2)o1 [Example 694, 6-(3-cyanopyrrolo[1,2-b]pyridazin-7-yl)-N—((R)-2-fluoro-3-hydroxy-3-methylbutyl)-4-(((1r,3R)-3-(((5-methyl-1,3,4-oxadiazol-2-yl)amino)methyl)cyclobutyl)amino)nicotinamide] | 102 | < 1
CC(C)(O)[C@H](F)CNC(=O)c1cnc(-c2ccc3cc(C#N)cnn23)cc1N[C@H]1C[C@H](CNC(=O)C2CC2(F)F)C1 (stereo partly drawn) [Example 695, 6-(3-cyanopyrrolo[1,2-b]pyridazin-7-yl)-4-(((1R,3R)-3-(((R)-2,2-difluorocyclopropane-1-carboxamido)methyl)cyclobutyl)amino)-N-((R)-2-fluoro-3-hydroxy-3-methylbutyl)nicotinamide] | 15 | < 1
CC(C)(O)[C@H](F)CNC(=O)c1cnc(-c2ccc3cc(C#N)cnn23)cc1N[C@H]1C[C@H](CNc2nnc(C3CC3)o2)C1 [Example 696, 6-(3-cyanopyrrolo[1,2-b]pyridazin-7-yl)-4-(((1r,3R)-3-(((5-cyclopropyl-1,3,4-oxadiazol-2-yl)amino)methyl)cyclobutyl)amino)-N-((R)-2-fluoro-3-hydroxy-3-methylbutyl)nicotinamide] | 103 | < 1
COCc1nnc(NC[C@H]2C[C@H](Nc3cc(-c4ccc5cc(C#N)cnn45)ncc3C(=O)NC[C@@H](F)C(C)(C)O)C2)o1 [Example 697, 6-(3-cyanopyrrolo[1,2-b]pyridazin-7-yl)-N-((R)-2-fluoro-3-hydroxy-3-methylbutyl)-4-(((1r,3R)-3-(((5-(methoxymethyl)-1,3,4-oxadiazol-2-yl)amino)methyl)cyclobutyl)amino) nicotinamide] | 171 | 1
COC(=O)NC[C@H]1C[C@@H](Nc2cc(-c3ccc4cc(C#N)cnn34)ncc2C(=O)NC[C@@H](F)C(C)(C)O)C1 [Example 698, methyl (((1S,3s)-3-((2-(3-cyanopyrrolo[1,2-b]pyridazin-7-yl)-5-(((R)-2-fluoro-3-hydroxy-3-methylbutyl)carbamoyl)pyridin-4-yl)amino)cyclo-butyl)methyl)carbamate] | 201 | 3
CC(C)(O)[C@H](F)CNC(=O)c1cnc(-c2ccc3cc(C#N)cnn23)cc1N[C@H]1C[C@H](CNC(=O)[C@@H]2CC2(F)F)C1 [Example 699, 6-(3-cyanopyrrolo[1,2-b]pyridazin-7-yl)-4-(((1S,3R)-3-(((S)-2,2-difluorocyclopropane-1-carboxamido)methyl)cyclo-butyl)amino)-N-((R)-2-fluoro-3-hydroxy-3-methylbutyl)nicotinamide] | 36 | < 1
CC(C)(O)[C@H](F)CNC(=O)c1cnc(-c2ccc3cc(C#N)cnn23)cc1N[C@H]1C[C@H](CNCC(F)(F)F)C1 [Example 700, 6-(3-cyanopyrrolo[1,2-b]pyridazin-7-yl)-N—((R)-2-fluoro-3-hydroxy-3-methylbutyl)-4-(((1r,3R)-3-(((2,2,2-trifluoroethyl)amino)methyl)cyclobutyl)amino)nicotinamide] | 151 | 2
CC(C)(O)[C@H](F)CNC(=O)c1cnc(-c2ccc3cc(C#N)cnn23)cc1N[C@H]1C[C@H](CN2CCOCC2)C1 [Example 701, 6-(3-cyanopyrrolo[1,2-b]pyridazin-7-yl)-N-((R)-2-fluoro-3-hydroxy-3-methylbutyl)-4-(((1r,3R)-3-(morpholino-methyl)cyclobutyl)amino)nicotinamide] | 191 | 4
CC(C)(O)[C@H](F)CNC(=O)c1cnc(-c2ccc3cc(C#N)cnn23)cc1N[C@H]1C[C@H](CNC2COC2)C1 [Example 702, 6-(3-cyanopyrrolo[1,2-b]pyridazin-7-yl)-N—((R)-2-fluoro-3-hydroxy-3-methylbutyl)-4-(((1r,3R)-3-((oxetan-3-ylamino)methyl)cyclobutyl)amino)nicotinamide] | 119 | < 1
CC(C)(O)[C@H](F)CNC(=O)c1cnc(-c2ccc3cc(C#N)cnn23)cc1NCC1CCC1 [Example 703, (R)-6-(3-cyano-pyrrolo[1,2-b]pyridazin-7-yl)-4-((cyclobutyl-methyl)amino)-N-(2-fluoro-3-hydroxy-3-methylbutyl)nicotinamide] | 45 | < 1
CC(C)(O)[C@H](F)CNC(=O)c1cnc(-c2ccc3cc(C#N)cnn23)cc1N[C@H]1C[C@H](Cn2cc(C3CC3)nn2)C1 [Example 704, 6-(3-cyanopyrrolo[1,2-b]pyridazin-7-yl)-4-(((1r,3R)-3-((4-cyclopropyl-1H-1,2,3-triazol-1-yl)methyl)cyclobutyl)amino)-N—((R)-2-fluoro-3-hydroxy-3-methylbutyl)nicotinamide] | 69 | 1
CC(C)(O)[C@H](F)CNC(=O)c1cnc(-c2ccc3cc(C#N)cnn23)cc1NCCc1ccc(F)cc1 [Example 707, (R)-6-(3-cyanopyrrolo[1,2-b]pyridazin-7-yl)-N-(2-fluoro-3-hydroxy-3-methylbutyl)-4-((4-fluorophenethyl)amino) nicotinamide] | 42 | 1
CC(C)(O)[C@H](F)CNC(=O)c1cnc(-c2ccc3cc(C#N)cnn23)cc1N[C@H]1C[C@H](Oc2ccccc2)C1 [Example 708, 6-(3-cyanopyrrolo[1,2-b]pyridazin-7-yl)-N-((R)-2-fluoro-3-hydroxy-3-methylbutyl)-4-(((1r,3R)-3-phenoxycyclobutyl)amino) nicotinamide] | 57 | 1
N#Cc1cnn2c(-c3cc(NC45CCC(O)(CC4)CC5)c(C(=O)NCC4(F)CC4)cn3)ccc2c1 [Example 709, 6-(3-cyanopyrrolo[1,2-b]pyridazin-7-yl)-N-((1-fluorocyclopropyl)methyl)-4-((4-hydroxy-bicyclo[2.2.2]octan-1-yl)amino)nicotinamide] | 151 | 3
N#Cc1cnn2c(-c3cc(NC45CCC(O)(CC4)CC5)c(C(=O)NCC4(C(F)F)COC4)cn3)ccc2c1 [Example 710, 6-(3-cyanopyrrolo[1,2-b]pyridazin-7-yl)-N-((3-(difluoromethyl)oxetan-3-yl)methyl)-4-((4-hydroxybicyclo[2.2.2]octan-1-yl)amino) nicotinamide] | 183 | 4
N#Cc1cnn2c(-c3cc(NC45CCC(O)(CC4)CC5)c(C(=O)NCC4(CO)COC4)cn3)ccc2c1 [Example 711, 6-(3-cyanopyrrolo[1,2-b]pyridazin-7-yl)-4-((4-hydroxybicyclo[2.2.2]octan-1-yl)amino)-N-((3-(hydroxymethyl)oxetan-3-yl)methyl)nicotinamide] | 231 | 2
CC(C)Nc1cc(-c2ccc3cc(C#N)cnn23)ncc1C(=O)NCCC(O)C(F)(F)F (stereo not drawn) [Example 712, 6-(3-cyanopyrrolo[1,2-b]pyridazin-7-yl)-4-(isopropyl-amino)-N-(4,4,4-trifluoro-3-hydroxybutyl)nicotinamide] | 47 | < 1
COCC1CCC1CNc1cc(-c2ccc3cc(C#N)cnn23)ncc1C(=O)NC[C@@H](F)C(C)(C)O (stereo partly drawn) [Example 713, 6-(3-cyanopyrrolo[1,2-b]pyridazin-7-yl)-N-((R)-2-fluoro-3-hydroxy-3-methyl-butyl)-4-(((2-(methoxy-methyl)cyclobutyl)methyl)amino)nicotinamide] | 264 | 2
CC(C)(O)[C@H](F)CNC(=O)c1cnc(-c2ccc3cc(C#N)cnn23)cc1N[C@H]1C[C@H](CN2CCOC2=O)C1 [Example 714, 6-(3-cyanopyrrolo[1,2-b]pyridazin-7-yl)-N-((R)-2-fluoro-3-hydroxy-3-methylbutyl)-4-(((1r,3R)-3-((2-oxooxazolidin-3-yl)methyl)cyclobutyl)amino)nicotinamide] | 35 | < 1
CC(C)(O)[C@H](F)CNC(=O)c1cnc(-c2ccc3cc(C#N)cnn23)cc1N[C@H]1CC[C@H](CN2CCOC2=O)CC1 [Example 715, 6-(3-cyanopyrrolo[1,2-b]pyridazin-7-yl)-N-((R)-2-fluoro-3-hydroxy-3-methylbutyl)-4-(((1r,4R)-4-((2-oxooxazolidin-3-yl)methyl)cyclohexyl)amino)nicotinamide] | 57 | 1
COC(=O)NCCCNc1cc(-c2ccc3cc(C#N)cnn23)ncc1C(=O)NC[C@@H](F)C(C)(C)O [Example 716, (R)-methyl (3-((2-(3-cyanopyrrolo[1,2-b]pyridazin-7-yl)-5-((2-fluoro-3-hydroxy-3-methylbutyl)carbamoyl)pyridin-4-yl)amino)propyl)carbamate] | 55 | < 1
COC(=O)NCCCCNc1cc(-c2ccc3cc(C#N)cnn23)ncc1C(=O)NC[C@@H](F)C(C)(C)O [Example 717, (R)-methyl (4-((2-(3-cyano-pyrrolo[1,2-b]pyridazin-7-yl)-5-((2-fluoro-3-hydroxy-3-methylbutyl)carbamoyl)pyridin-4-yl)amino)butyl) carbamate] | 66 | < 1
COC(=O)NCC(C)(C)CNc1cc(-c2ccc3cc(C#N)cnn23)ncc1C(=O)NC[C@@H](F)C(C)(C)O [Example 718, (R)-methyl (3-((2-(3-cyano-pyrrolo[1,2-b]pyridazin-7-yl)-5-((2-fluoro-3-hydroxy-3-methylbutyl)carbamoyl)pyridin-4-yl)amino)-2,2-dimethylpropyl)carbamate] | 280 | 2
CC(C)(O)[C@H](F)CNC(=O)c1cnc(-c2ccc3cc(C#N)cnn23)cc1Nc1ccc(Cn2ccccc2=O)cc1 [Example 719, (R)-6-(3-cyanopyrrolo[1,2-b]pyridazin-7-yl)-N-(2-fluoro-3-hydroxy-3-methylbutyl)-4-((4-((2-oxopyridin-1(2H)-yl)methyl)phenyl)amino)nicotinamide] | 11 | < 1
